Test results as given in PubChem BioAssay (NCI).
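Tested at 5 concentrations; 48 h exposure; 96-well plates; endpoints linearly interpolated, else capped at highest concentration. TGI marks complete inhibition of growth.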

Assays:
Test in all cases: NCI tumour cell line growth inhibition, 48 h
HCT-116 colon = tested on: HCT-116 colon
OVCAR-8 ovarian = tested on: OVCAR-8 ovarian
A549 NSCLC = tested on: A549 NSCLC
SK-OV-3 ovarian = tested on: SK-OV-3 ovarian
HT29 colon = tested on: HT29 colon
OVCAR-5 ovarian = tested on: OVCAR-5 ovarian
SK-MEL-5 melanoma = tested on: SK-MEL-5 melanoma
COLO 205 colon = tested on: COLO 205 colon
MOLT-4 leukemia = tested on: MOLT-4 leukemia
UO-31 renal = tested on: UO-31 renal
HCC-2998 colon = tested on: HCC-2998 colon
NCI-H23 lung = tested on: NCI-H23 lung
NCI/ADR-RES ovarian = tested on: NCI/ADR-RES ovarian
SF-539 CNS = tested on: SF-539 CNS
SNB-75 CNS = tested on: SNB-75 CNS
U251 CNS = tested on: U251 CNS
HOP-18 NSCLC = tested on: HOP-18 NSCLC
SN12C renal = tested on: SN12C renal
DLD-1 colon = tested on: DLD-1 colon
EKVX NSCLC = tested on: EKVX NSCLC
HCT-15 colon = tested on: HCT-15 colon
K-562 leukemia = tested on: K-562 leukemia
NCI-H226 lung = tested on: NCI-H226 lung
SF-295 CNS = tested on: SF-295 CNS
OVCAR-3 ovarian = tested on: OVCAR-3 ovarian
RPMI-8226 leukemia = tested on: RPMI-8226 leukemia
KM20L2 colon = tested on: KM20L2 colon
OVCAR-4 ovarian = tested on: OVCAR-4 ovarian
SW-620 colon = tested on: SW-620 colon
LOX IMVI melanoma = tested on: LOX IMVI melanoma
SNB-19 CNS = tested on: SNB-19 CNS
HOP-92 NSCLC = tested on: HOP-92 NSCLC
SK-MEL-28 melanoma = tested on: SK-MEL-28 melanoma
HOP-62 NSCLC = tested on: HOP-62 NSCLC
M19-MEL melanoma = tested on: M19-MEL melanoma
UACC-257 melanoma = tested on: UACC-257 melanoma
HL-60(TB) leukemia = tested on: HL-60(TB) leukemia
A498 renal = tested on: A498 renal
DMS 273 small cell lung = tested on: DMS 273 small cell lung
RXF 393 renal = tested on: RXF 393 renal
XF 498 CNS = tested on: XF 498 CNS
SF-268 CNS = tested on: SF-268 CNS
SN12K1 renal = tested on: SN12K1 renal
NCI-H522 lung = tested on: NCI-H522 lung
KM12 colon = tested on: KM12 colon
P388 leukemia = tested on: P388 leukemia
SNB-78 CNS = tested on: SNB-78 CNS
MCF7 breast = tested on: MCF7 breast
CCRF-CEM leukemia = tested on: CCRF-CEM leukemia
NCI-H460 lung = tested on: NCI-H460 lung
SK-MEL-2 melanoma = tested on: SK-MEL-2 melanoma
MALME-3M melanoma = tested on: MALME-3M melanoma
IGROV1 ovarian = tested on: IGROV1 ovarian
DMS 114 small cell lung = tested on: DMS 114 small cell lung
SR leukemia = tested on: SR leukemia
TK-10 renal = tested on: TK-10 renal
LXFL 529 NSCLC = tested on: LXFL 529 NSCLC
RXF-631 renal = tested on: RXF-631 renal
ACHN renal = tested on: ACHN renal
CAKI-1 renal = tested on: CAKI-1 renal
786-0 renal = tested on: 786-0 renal
UACC-62 melanoma = tested on: UACC-62 melanoma
M14 melanoma = tested on: M14 melanoma

COc1cc(-c2ccc(N=Nc3c(S(=O)(=O)O)cc4cc(S(=O)(=O)O)cc(N)c4c3O)c(OC)c2)ccc1N=Nc1c(S(=O)(=O)O)cc2cc(S(=O)(=O)O)cc(N)c2c1O
TGI (HCT-116 colon): > 100 µM | TGI (OVCAR-8 ovarian): > 100 µM | TGI (A549 NSCLC): > 100 µM | TGI (SK-OV-3 ovarian): > 100 µM | TGI (HT29 colon): > 100 µM | TGI (OVCAR-5 ovarian): > 100 µM | TGI (SK-MEL-5 melanoma): > 100 µM | TGI (COLO 205 colon): > 100 µM | TGI (MOLT-4 leukemia): > 100 µM | TGI (UO-31 renal): > 100 µM | TGI (HCC-2998 colon): > 100 µM | TGI (NCI-H23 lung): > 100 µM | TGI (NCI/ADR-RES ovarian): > 100 µM | TGI (SF-539 CNS): > 100 µM | TGI (SNB-75 CNS): > 100 µM | TGI (U251 CNS): > 100 µM | TGI (HOP-18 NSCLC): > 100 µM | TGI (SN12C renal): > 100 µM | TGI (DLD-1 colon): > 100 µM | TGI (EKVX NSCLC): > 100 µM | TGI (HCT-15 colon): > 100 µM | TGI (K-562 leukemia): > 100 µM | TGI (NCI-H226 lung): > 100 µM | TGI (SF-295 CNS): > 100 µM | TGI (OVCAR-3 ovarian): > 100 µM | TGI (RPMI-8226 leukemia): > 100 µM | TGI (KM20L2 colon): > 100 µM | TGI (OVCAR-4 ovarian): > 100 µM | TGI (SW-620 colon): > 100 µM | TGI (LOX IMVI melanoma): > 100 µM | TGI (SNB-19 CNS): > 100 µM | TGI (HOP-92 NSCLC): > 77.4 µM | TGI (SK-MEL-28 melanoma): > 100 µM | TGI (HOP-62 NSCLC): > 100 µM | TGI (M19-MEL melanoma): > 100 µM | TGI (UACC-257 melanoma): > 100 µM | TGI (HL-60(TB) leukemia): > 100 µM | TGI (A498 renal): > 100 µM | TGI (DMS 273 small cell lung): > 100 µM | TGI (RXF 393 renal): > 100 µM | TGI (XF 498 CNS): > 67.9 µM | TGI (SF-268 CNS): > 100 µM | TGI (SN12K1 renal): > 100 µM | TGI (NCI-H522 lung): > 100 µM | TGI (KM12 colon): > 100 µM | TGI (P388 leukemia): > 100 µM | TGI (SNB-78 CNS): > 100 µM | TGI (MCF7 breast): > 100 µM | TGI (CCRF-CEM leukemia): > 100 µM | TGI (NCI-H460 lung): > 100 µM | TGI (SK-MEL-2 melanoma): > 100 µM | TGI (MALME-3M melanoma): > 100 µM | TGI (IGROV1 ovarian): > 100 µM | TGI (DMS 114 small cell lung): > 100 µM

Brc1ccc2c(C3CN[C@@H](c4c[nH]c5cc(Br)ccc45)CN3)c[nH]c2c1 (some centres not stated)
TGI (HCT-116 colon): 3.55 µM | TGI (OVCAR-8 ovarian): 15.9 µM | TGI (A549 NSCLC): 9.02 µM | TGI (SK-OV-3 ovarian): 16.6 µM | TGI (HT29 colon): 9.52 µM | TGI (OVCAR-5 ovarian): 10.1 µM | TGI (SK-MEL-5 melanoma): 14.3 µM | TGI (COLO 205 colon): 3.49 µM | TGI (SR leukemia): 3.08 µM | TGI (MOLT-4 leukemia): 11 µM | TGI (UO-31 renal): 18.1 µM | TGI (HCC-2998 colon): 5.43 µM | TGI (NCI-H23 lung): 7.13 µM | TGI (TK-10 renal): 20.8 µM | TGI (SF-539 CNS): 12.9 µM | TGI (SNB-75 CNS): 31.7 µM | TGI (U251 CNS): 18.5 µM | TGI (HOP-18 NSCLC): 24.6 µM | TGI (LXFL 529 NSCLC): 6.86 µM | TGI (SN12C renal): 17.7 µM | TGI (DLD-1 colon): 12.8 µM | TGI (EKVX NSCLC): 21.9 µM | TGI (HCT-15 colon): 13.6 µM | TGI (RXF-631 renal): 12.9 µM | TGI (K-562 leukemia): 9.4 µM | TGI (NCI-H226 lung): 7.96 µM | TGI (SF-295 CNS): 12.4 µM | TGI (OVCAR-3 ovarian): 19.7 µM | TGI (RPMI-8226 leukemia): 5.16 µM | TGI (KM20L2 colon): 4.96 µM | TGI (OVCAR-4 ovarian): 13.6 µM | TGI (SW-620 colon): 9.05 µM | TGI (LOX IMVI melanoma): 9.03 µM | TGI (SNB-19 CNS): 22.4 µM | TGI (HOP-92 NSCLC): 9.29 µM | TGI (SK-MEL-28 melanoma): 23.8 µM | TGI (HOP-62 NSCLC): 16.2 µM | TGI (ACHN renal): 12.6 µM | TGI (CAKI-1 renal): 25.9 µM | TGI (M19-MEL melanoma): 19.4 µM | TGI (UACC-257 melanoma): 23.4 µM | TGI (HL-60(TB) leukemia): 7.72 µM | TGI (A498 renal): 9.36 µM | TGI (DMS 273 small cell lung): 5.13 µM | TGI (RXF 393 renal): 4.41 µM | TGI (XF 498 CNS): 18.7 µM | TGI (SF-268 CNS): 19.1 µM | TGI (NCI-H522 lung): 5.6 µM | TGI (KM12 colon): 3.47 µM | TGI (SNB-78 CNS): 22.7 µM | TGI (CCRF-CEM leukemia): 11.7 µM | TGI (NCI-H460 lung): 3.85 µM | TGI (SK-MEL-2 melanoma): 10.9 µM | TGI (786-0 renal): 9.91 µM | TGI (MALME-3M melanoma): 26.5 µM | TGI (UACC-62 melanoma): 17.5 µM | TGI (IGROV1 ovarian): 23.6 µM | TGI (DMS 114 small cell lung): 5.14 µM | TGI (M14 melanoma): 9.6 µM

COc1ccc(NCc2cc(OC)cc(OC)c2)cc1
TGI (HCT-116 colon): 57.3 µM | TGI (OVCAR-8 ovarian): > 100 µM | TGI (A549 NSCLC): > 100 µM | TGI (SK-OV-3 ovarian): > 95.5 µM | TGI (HT29 colon): > 100 µM | TGI (OVCAR-5 ovarian): 77.7 µM | TGI (SK-MEL-5 melanoma): > 100 µM | TGI (COLO 205 colon): 27.4 µM | TGI (SR leukemia): > 100 µM | TGI (MOLT-4 leukemia): > 100 µM | TGI (UO-31 renal): > 91.8 µM | TGI (HCC-2998 colon): 57.9 µM | TGI (NCI-H23 lung): > 95.5 µM | TGI (TK-10 renal): > 100 µM | TGI (SF-539 CNS): 54.2 µM | TGI (SNB-75 CNS): > 100 µM | TGI (U251 CNS): > 85 µM | TGI (HOP-18 NSCLC): > 100 µM | TGI (LXFL 529 NSCLC): > 100 µM | TGI (SN12C renal): > 100 µM | TGI (DLD-1 colon): > 100 µM | TGI (EKVX NSCLC): > 100 µM | TGI (HCT-15 colon): > 100 µM | TGI (RXF-631 renal): > 100 µM | TGI (K-562 leukemia): > 84.6 µM | TGI (NCI-H226 lung): > 100 µM | TGI (SF-295 CNS): > 100 µM | TGI (OVCAR-3 ovarian): > 59.3 µM | TGI (RPMI-8226 leukemia): 61.6 µM | TGI (KM20L2 colon): 38.1 µM | TGI (OVCAR-4 ovarian): 82.1 µM | TGI (SW-620 colon): > 100 µM | TGI (LOX IMVI melanoma): > 100 µM | TGI (SNB-19 CNS): > 100 µM | TGI (HOP-92 NSCLC): > 100 µM | TGI (SK-MEL-28 melanoma): > 100 µM | TGI (HOP-62 NSCLC): > 100 µM | TGI (ACHN renal): > 100 µM | TGI (CAKI-1 renal): > 100 µM | TGI (M19-MEL melanoma): > 100 µM | TGI (UACC-257 melanoma): > 100 µM | TGI (HL-60(TB) leukemia): 32.9 µM | TGI (A498 renal): > 100 µM | TGI (DMS 273 small cell lung): > 70.4 µM | TGI (RXF 393 renal): 69.8 µM | TGI (XF 498 CNS): > 76.8 µM | TGI (SF-268 CNS): > 91 µM | TGI (NCI-H522 lung): 56.7 µM | TGI (KM12 colon): > 64.9 µM | TGI (SNB-78 CNS): 61.8 µM | TGI (CCRF-CEM leukemia): > 92.6 µM | TGI (NCI-H460 lung): > 84.6 µM | TGI (SK-MEL-2 melanoma): > 82.7 µM | TGI (786-0 renal): > 100 µM | TGI (MALME-3M melanoma): > 100 µM | TGI (UACC-62 melanoma): > 100 µM | TGI (IGROV1 ovarian): > 100 µM | TGI (DMS 114 small cell lung): > 100 µM | TGI (M14 melanoma): > 100 µM
